Assay results taken from ChEMBL document CHEMBL1155745, “Constituents of the root bark of Severinia buxifolia collected in Hainan” (2001).
≈ marks a conversion by molar mass, not a printed value. Calls of active or inactive are those of the source. No cut-off for these calls is given here.

What was measured:
[1] = (§1) Cytotoxicity against human Hep3B cells; format: functional, Hep 3B2; details: read-out: ED50 (the source's name)
[2] = tested on: KB; assay: Cytotoxicity against human KB cells; format: functional; details: for EC50: read-out: ED50 (the source's name)
[3] = tested on: COLO 205; assay: Cytotoxicity against human COLO205 cells; format: functional; details: for EC50: read-out: ED50 (the source's name)
[4] = tested on: Hep 3B2; assay: as §1; format: functional

SMILES | EC50 [1] [µg/mL] | EC50 [2] [µg/mL] | ED50 [3] | ED50 [4] | ED50 [2] | EC50 [3] [µg/mL]
COc1c(O)ccc2c(=O)c3c(O)cc(O)c(OC)c3n(C)c12 | 5.3 (≈ 16.7 µM) | 0.22 (≈ 0.693 µM) | inactive | – | – | –
COc1c(/C=C/C(C)C)c(O)c2c(=O)c3cccc(O)c3[nH]c2c1CC=C(C)C | – | – | – | inactive | inactive | 1.2 (≈ 3.05 µM)
CC(C)=CCc1c2c(c(O)c3c(=O)c4ccccc4[nH]c13)C=CC(C)(C)O2 | – | – | – | inactive | inactive | 0.58 (≈ 1.6 µM)
COc1c(O)cc(O)c2c(=O)c3cccc(O)c3n(C)c12 [CITRUSININE-II] | – | 0.82 (≈ 2.85 µM) | inactive | inactive | – | –
COc1cc(O)c2c(=O)c3cccc(O)c3n(C)c2c1OC [CITRUSININE-I] | 6.6 (≈ 21.9 µM) | 0.09 (≈ 0.299 µM) | – | – | – | 6.3 (≈ 20.9 µM)
CC(C)=CCc1c2c(c3[nH]c4ccccc4c(=O)c3c1O)C=CC(C)(C)O2 [SEVERIFOLINE] | – | 0.09 (≈ 0.249 µM) | inactive | inactive | – | –
